Data taken from patent US12286451B2, “Borate ester complexes of α-hydroxy carboxylic acids and their conjugate base buffers” (Medtech Products Inc., priority 2020, dated 2025).

Experiments:
[1] = Molar titration of boric acid/α-hydroxy acid reaction products with 0.1N sodium hydroxide; type: physicochemical; settings: for pKa: 5.0 ml solution, pH at half of the end point; for Capacity (buffer capacity): titrant required to raise the pH one unit from the pKa value
Description: (§1) Reaction products of boric acid and α-hydroxy carboxylic acids were prepared by diluting pre-made stock solution of 0.4M boric acid and 0.4M, 0.6M, and 0.8M α-hydroxy carboxylic acid. [table] Each reaction mixture was allowed to mix for a minimum of two hours before subsequent titration with 0.1N certified sodium hydroxide solution. Two sets of titrations were performed. The first set of titrations, molar titration, 5.0 ml of each solution is titrated to accurately determine end point and the pKa and pH at half of the end point. The second set of titrations, equivalence titration, solution volumes were adjusted to 0.5 milliequivalent and the buffer capacity determined. For simplicity, buffer capacity is reported as the milliequivalents of titrant required to raise the pH one unit from the pKa value. An exception was made for the 1:3 test ratio in which free α-hydroxy acid and the boric acid ester complex could not be distinguished between.

[2] = Equivalence titration (0.5 milliequivalent) of reaction products with 0.1N sodium hydroxide; type: physicochemical; settings: equivalent titration; for pKa: volume adjusted to 0.5 milliequivalent; for Capacity (buffer capacity): titrant required to raise the pH one unit from the pKa value
Description: as §1

SMILES: CC(O)C(=O)O (stereo not drawn) [Lactic Acid 0, Lactic Acid]
- pKa [1]: 4
- Capacity (buffer capacity) [1]: 11 milliequivalents
- pKa [2]: 4
- Capacity (buffer capacity) [2]: 11 milliequivalents

SMILES: O=C(O)CO [Glycolic Acid 0, Glycolic Acid]
- pKa [1]: 3.9
- Capacity (buffer capacity) [1]: 13 milliequivalents
- pKa [2]: 3.9
- Capacity (buffer capacity) [2]: 13 milliequivalents

SMILES: O=C(O)CC(O)(CC(=O)O)C(=O)O [Citric Acid 0, Citric Acid]
- pKa [1]: 4.3
- Capacity (buffer capacity) [1]: 39 milliequivalents
- pKa [2]: 4.3
- Capacity (buffer capacity) [2]: 39 milliequivalents
